The source of these data is PubChem BioAssay AID328 (DTP/NCI, 2004).

Where “and” joins values, the source holds several entries; their conditions need not be identical. Equal entries are not always repeated. Toxic doses and inconclusive results are not listed.

In the test the test system is BDF1 mice, P388 leukemia ip, median survival T/C. The experiment in a line: NCI In Vivo Anticancer Drug Screen. Data for tumor model P388 Leukemia (intraperitoneal) in B6D2F1 (BDF1) mice. The conditions noted are these: endpoint: median survival time, higher = longer survival. In short, it runs like this:
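Compound-treated tumour-bearing mice were compared with vehicle-treated controls. Survival was recorded, and the value is the treated-group measurement divided by the control-group measurement (T/C).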

The mark [1] stands for this setting: dose: 100.0 mg/kg/injection, schedule: Q04DX003 (ip), vehicle: Klucel (hydroxypropylcellulose) (HPC).
Where [2] appears, read: dose: 200.0 mg/kg/injection, schedule: Q04DX003 (ip), vehicle: saline with Tween-80.
Where [3] appears, read: dose: 100.0 mg/kg/injection, schedule: Q04DX003 (ip), vehicle: saline with Tween-80.
Where [4] appears, read: dose: 400.0 mg/kg/injection, schedule: Q04DX003 (ip), vehicle: saline with Tween-80.
Where [5] appears, read: dose: 25.0 mg/kg/injection, schedule: Q01DX009 (ip), vehicle: saline with Tween-80.
[6] abbreviates: dose: 50.0 mg/kg/injection, schedule: Q01DX009 (ip), vehicle: saline with Tween-80.
Where [7] appears, read: dose: 100.0 mg/kg/injection, schedule: Q01DX009 (ip), vehicle: saline with Tween-80.
Setting [8] is: dose: 200.0 mg/kg/injection, schedule: Q01DX009 (ip), vehicle: saline with Tween-80.
[9] abbreviates: dose: 100.0 mg/kg/injection, schedule: Q01DX001 (ip), vehicle: saline with Tween-80.
Setting [10] is: dose: 200.0 mg/kg/injection, schedule: Q04DX003 (ip), vehicle: Klucel (hydroxypropylcellulose) (HPC).
Where [11] appears, read: dose: 50.0 mg/kg/injection, schedule: Q04DX003 (ip), vehicle: saline with Tween-80.
Setting [12] is: dose: 400.0 mg/kg/injection, schedule: Q04DX003 (ip), vehicle: Klucel (hydroxypropylcellulose) (HPC).

`CC1=CC2=C(C=O)C(=O)[C@](C)(O)[C@@H](O)C2=CO1`: the T/C reads like this: (dose: 44.0 mg/kg/injection, schedule: Q04DX003 (ip), vehicle: Klucel (hydroxypropylcellulose) (HPC)) 101 % of control; (dose: 44.0 mg/kg/injection, schedule: Q04DX003 (ip), vehicle: saline with Tween-80) 108 % of control and 114 % of control; (dose: 66.0 mg/kg/injection, schedule: Q04DX003 (ip), vehicle: Klucel (hydroxypropylcellulose) (HPC)) 115 % of control; (dose: 66.0 mg/kg/injection, schedule: Q04DX003 (ip), vehicle: saline with Tween-80) 116 % of control; under setting [1], 108 % of control; (dose: 150.0 mg/kg/injection, schedule: Q04DX003 (ip), vehicle: saline with Tween-80) 108 % of control. Moreover, the T/C under setting [2] was 95 % of control.

For `O=C1CC(c2ccc([N+](=O)[O-])cc2)=Nc2ccccc2N1`, the T/C under setting [3] is 109 % of control, the T/C under setting [2] is 104 % of control and the T/C under setting [4] was 114 % of control.

Turning to `O=C1C(Br)=Cc2cccc3cccc1c23`, the T/C reads like this: under setting [5], 111 % of control; under setting [6], 105 % of control; under setting [7], 107 % of control; under setting [3], 95 % of control; under setting [8], 230 % of control and 107 % of control; under setting [2], 104 % of control. Moreover, the T/C is, setting by setting: (dose: 400.0 mg/kg/injection, schedule: Q01DX009 (ip), vehicle: saline with Tween-80) 100 % of control; under setting [4], 104 % of control.

`C=C(COC(C)(C)C)CN(C)C`: the T/C is 92 % of control (dose: 25.0 mg/kg/injection, schedule: Q01DX009 (ip), vehicle: acetone); 100 % of control (dose: 50.0 mg/kg/injection, schedule: Q01DX009 (ip), vehicle: acetone); 96 % of control (dose: 100.0 mg/kg/injection, schedule: Q01DX009 (ip), vehicle: acetone).

For `CC1=Nc2ccccc2N(C)/C1=C/C1=C(Cl)C(=O)c2ccccc2C1=O`, the T/C was 103 % of control (dose: 25.0 mg/kg/injection, schedule: Q01DX001 (ip), vehicle: saline with Tween-80); 94 % of control (dose: 50.0 mg/kg/injection, schedule: Q01DX001 (ip), vehicle: saline with Tween-80); 108 % of control under setting [9].

Regarding `C/C(=N\NC(=O)CC(=O)N/N=C(\C)c1ccncc1)c1ccncc1`, the T/C is, setting by setting: (dose: 75.0 mg/kg/injection, schedule: Q01DX009 (ip), vehicle: saline with Tween-80) 99 % of control; (dose: 150.0 mg/kg/injection, schedule: Q01DX009 (ip), vehicle: saline with Tween-80) 90 % of control; (dose: 300.0 mg/kg/injection, schedule: Q01DX009 (ip), vehicle: saline with Tween-80) 94 % of control.

`O=c1[nH]cc(CCc2ccccc2)c(=O)[nH]1`: the T/C is, setting by setting: (dose: 100.0 mg/kg/injection, schedule: Q01DX001 (ip), vehicle: Klucel (hydroxypropylcellulose) (HPC)) 105 % of control; (dose: 100.0 mg/kg/injection, schedule: Q01DX009 (ip), vehicle: Klucel (hydroxypropylcellulose) (HPC)) 100 % of control; under setting [1], 104 % of control; (dose: 200.0 mg/kg/injection, schedule: Q01DX009 (ip), vehicle: Klucel (hydroxypropylcellulose) (HPC)) 88 % of control; under setting [10], 100 % of control; (dose: 400.0 mg/kg/injection, schedule: Q01DX001 (ip), vehicle: Klucel (hydroxypropylcellulose) (HPC)) 105 % of control. For the same molecule, for the setting “dose: 400.0 mg/kg/injection, schedule: Q01DX009 (ip), vehicle: Klucel (hydroxypropylcellulose) (HPC)”, the T/C was 92 % of control.

With `CCCCCCCCCCCCCC[S+](C)C`, the T/C is, setting by setting: (dose: 12.5 mg/kg/injection, schedule: Q01DX009 (ip), vehicle: saline) 118 % of control; (dose: 25.0 mg/kg/injection, schedule: Q01DX009 (ip), vehicle: saline) 100 % of control; (dose: 25.0 mg/kg/injection, schedule: Q04DX003 (ip), vehicle: saline) 100 % of control; (dose: 50.0 mg/kg/injection, schedule: Q04DX003 (ip), vehicle: saline) 104 % of control.

Regarding `c1ccc(-c2nnc3ncccn23)cc1`, the T/C is, setting by setting: under setting [6], 96 % of control; under setting [7], 93 % of control; under setting [8], 93 % of control.

Consider `N#CCCCn1nnc(-c2ccccc2)n1`, for which the T/C under setting [6] is 100 % of control and the T/C under setting [7] was 108 % of control.

For the molecule `CCCC(=O)OCc1ccccn1`, the T/C is, setting by setting: under setting [6], 107 % of control; under setting [7], 102 % of control; under setting [8], 86 % of control.

As for `CCOC(=O)C(N=C=S)C(C)CC` (centres undefined), the T/C was 115 % of control under setting [9]; 107 % of control (dose: 200.0 mg/kg/injection, schedule: Q01DX001 (ip), vehicle: saline with Tween-80); 118 % of control (dose: 400.0 mg/kg/injection, schedule: Q01DX001 (ip), vehicle: saline with Tween-80).

Turning to `COC(=O)C(N)CSC` (centres undefined), the T/C was 103 % of control (dose: 100.0 mg/kg/injection, schedule: Q01DX009 (ip), vehicle: saline); 113 % of control (dose: 100.0 mg/kg/injection, schedule: Q04DX003 (ip), vehicle: saline); 106 % of control (dose: 200.0 mg/kg/injection, schedule: Q01DX009 (ip), vehicle: saline); 90 % of control (dose: 200.0 mg/kg/injection, schedule: Q04DX003 (ip), vehicle: saline); 106 % of control (dose: 400.0 mg/kg/injection, schedule: Q01DX009 (ip), vehicle: saline); 104 % of control (dose: 400.0 mg/kg/injection, schedule: Q04DX003 (ip), vehicle: saline).

As to `COC(=O)CCCCCCCCC[CH2][Hg][Cl]`, the T/C (dose: 6.25 mg/kg/injection, schedule: Q04DX003 (ip), vehicle: saline sonified) was 100 % of control; the T/C (dose: 12.5 mg/kg/injection, schedule: Q04DX003 (ip), vehicle: saline sonified) is 100 % of control; the T/C (dose: 25.0 mg/kg/injection, schedule: Q04DX003 (ip), vehicle: saline sonified) was 122 % of control.

For `COC(=O)/C(C#N)=C(\C)CCC=C(C)C`, the T/C reads like this: (dose: 25.0 mg/kg/injection, schedule: Q04DX003 (ip), vehicle: saline with Tween-80) 95 % of control; under setting [11], 105 % of control; under setting [3], 87 % of control.

Turning to `CS(=O)(=O)Nc1ccccc1-c1nc2ccccc2c(=O)o1`, the T/C was 105 % of control under setting [5], 104 % of control under setting [6], 105 % of control under setting [7] and 103 % of control under setting [8].

In the case of `O=C(O)CCCCCCCCCCCCO`, the T/C by setting is: under setting [1], 109 % of control; under setting [10], 90 % of control; under setting [12], 90 % of control.

Consider `CCCCCCC(=O)CC(SCC)c1ccc(Cl)cc1Cl` (centres undefined), for which the T/C reads like this: under setting [6], 98 % of control; under setting [7], 104 % of control; under setting [8], 104 % of control.

In the case of `O=[N+]([O-])c1ccc(Cc2ccncc2)cc1`, the T/C runs as follows: (dose: 37.5 mg/kg/injection, schedule: Q01DX009 (ip), vehicle: saline sonified) 100 % of control; (dose: 75.0 mg/kg/injection, schedule: Q01DX009 (ip), vehicle: saline sonified) 95 % of control; (dose: 150.0 mg/kg/injection, schedule: Q01DX009 (ip), vehicle: saline sonified) 95 % of control.

On to `COc1cc(OC)c2c(O)c3c(c(-c4ccc5cc6c(c(O)c5c4O)C(=O)CC(C)(O)C6)c2c1)CC(C)OC3C` (centres undefined), for which the T/C is, setting by setting: (dose: 0.19 mg/kg/injection, schedule: Q01DX009 (ip), vehicle: olive oil, sesame oil, peanut oil) 106 % of control; (dose: 0.39 mg/kg/injection, schedule: Q01DX009 (ip), vehicle: olive oil, sesame oil, peanut oil) 91 % of control; (dose: 0.78 mg/kg/injection, schedule: Q01DX009 (ip), vehicle: olive oil, sesame oil, peanut oil) 106 % of control; (dose: 1.56 mg/kg/injection, schedule: Q01DX009 (ip), vehicle: olive oil, sesame oil, peanut oil) 102 % of control and 111 % of control.

On to `CCOC(=O)NC1CCC2c3ccccc3C([N+](=O)[O-])(C1)c1ccccc12` (centres undefined), for which the T/C under setting [11] is 100 % of control, the T/C under setting [3] is 104 % of control and the T/C under setting [2] was 100 % of control.

As for `O=C1CN(Cc2ccc(Cl)cc2)CC(=O)N2CCCN12`, the T/C (dose: 50.0 mg/kg/injection, schedule: Q01DX005 (ip), vehicle: saline with Tween-80) was 92 % of control.

As to `CCOC(=O)c1cccc2cccc(C(=O)OCC)c12`, the T/C by setting is: under setting [5], 106 % of control; under setting [6], 92 % of control; under setting [7], 114 % of control; under setting [8], 100 % of control.

Consider `S=c1nc[nH]c2ccccc12`, for which the T/C reads like this: under setting [1], 109 % of control; under setting [10], 122 % of control; under setting [12], 109 % of control.
